# Test results: US8178506B2, “Oligomeric compounds and compositions for use in modulation of small non-coding RNAs” (Regulus Therapeutics Inc., priority 2003, dated 2012)
# In the oligonucleotide strings, read from the 5' end, every base follows the letter of its sugar. An asterisk marks phosphorothioate; unmarked linkages are phosphodiester. Other units and linkages are bracketed, terminal groups are in braces. A string of capitals states the bases alone. e = 2'-O-(2-methoxyethyl) (MOE); [5mC] = 5-methylcytosine; d = 2'-deoxy (DNA)
# How the values were obtained:
# HepG2 cells = assay: Insulin signaling assay in HepG2 cells, marker genes taken together; assay type: cell-based, human; details: for expression of the IGFBP-1, PEPCK-c and follistatin marker genes / mRNA levels of the IGFBP-1 and follistatin genes: HepG2, 1 nM insulin; for expression of the IGFBP-1, PEPCK-c and follistatin marker genes: 100 nM
# HuVECs = assay: Endothelial tube formation assay in HuVECs; details: 75 nM
# mir-30a pri-miRNA = assay: mir-30a luciferase reporter (pGL3C-M30-4X) assay in 293T cells; assay type: cell-based, human; details: for percent control luciferase expression: 150 nM oligomeric compound, then mir-30a pri-miRNA mimic 200 nM, pGL3C-M30-4X normalized to pRL-CMV; for reversing the mir-30a miRNA-mediated silencing of luciferase reporter: 150 nM, then mir-30a pri-miRNA mimic
# Description: In one embodiment of the invention, oligomeric compounds targeting the hairpin structure of mir-30a pri-miRNA were designed and tested for their effects on miRNA signaling in 293T cells (American Type Culture Collection (Manassas, Va.)).
# A synthetic DNA fragment comprised of four tandem repeats of the target site for mir-30a was cloned into the vector pGL3-C (purchased from Promega Corp., Madison Wis.) at the unique XbaI site (pGL3C-M30-4X). This places the target site in the 3′UTR of the luciferase reporter vector. An oligomeric compound mimicking the mir-30a pri-miRNA ([…] […], herein incorporated as SEQ ID NO: 1749) was in vitro transcribed using T7 RNA polymerase and a DNA template produced by PCR (the T7 promoter is shown in bold).
# On the day prior to the experiment 24-well plates were seeded with 293T cells at 50% confluency. The following morning cells were treated with oligomeric compounds targeted to the mir-30a pri-miRNA mimic. All of the compounds are 20 nucleobases in length having either a phosphorothioate backbone throughout (PS) or a phosphodiester backbone throughout (PO). […] All cytidine residues are 5-methylcytidines. The remaining compounds in the table have 2′-methoxyethoxy (MOE) nucleotides throughout with either a phosphorothioate (PS) or phosphodiester (PO) internucleoside linkages.
# Cells were washed once with PBS then oligomeric compounds were added to triplicate wells at 150 nM in OPTI-MEM™ media and 4.5 μl/ml LIPOFECTIN™ reagent (Invitrogen Corporation, Carlsbad, Calif.). After 3 hours, the media was removed, and the cells were treated with the mir-30a pri-miRNA mimic at 200 nM in OPTI-MEM™ with 6 μl/ml LIPOFECTIN™ reagent. After 3 hours the media was removed from the cells. The reporter plasmid, pGL3C-M30-4X, was then transfected using SuperFect reagent. 20 μg of pGL3C-M30-4X and 2 μg of pRL-CMV, a plasmid expressing Renilla luciferase, were suspended in 600 μL of serum-free DMEM to which 120 μl of Superfect was added. After a 5 minute incubation, 6 mls of DMEM+10% FCS was added. 125 μL of the plasmid/SuperFect suspension was added to each well. After a 2 hour incubation cells were washed and fresh growth media added. Cells were incubated overnight.
# The following morning the media was removed and the cells were lysed in 120 μL passive lysis buffer (PLB; Promega). 40 μL of the lysate was then assayed for Photinus (PL) and Renilla (RL) luciferases using a Dual Luciferase Assay kit (Promega) according to the manufacturer's protocol. The results below are given as percent pGL3C-M30-4× expression (PL) normalized to pRL-CMV expression (RL). The 20-nucleobase oligonucleotide random-mer ISIS Number 29848 was used as a negative control.
# PEPCK-c = PEPCK-c mRNA expression in HepG2 cells; assay type: cell-based, human; details: 100 nM; for reduction of PEPCK-c mRNA expression: HepG2, 1 nM insulin
# [1] = tested on: preadipocytes / differentiating adipocytes; assay: Adipocyte differentiation assay, markers taken together; assay type: cell-based, human
# adipocytes = assay: Triglyceride accumulation assay in adipocytes; assay type: cell-based, human; details: preadipocytes, 250 nM, day nine
# leptin = assay: Leptin secretion by adipocytes (ELISA); assay type: cell-based, human; details: preadipocytes, 250 nM, day nine
# Protocol: Leptin secretion into the medium in which adipocytes are cultured is measured by protein ELISA. On day nine post-transfection, 96-well plates are coated with a monoclonal antibody to human leptin (R&D Systems, Minneapolis, Minn.) and left at 4° C. overnight. The plates are blocked with bovine serum albumin (BSA), and a dilution of the treated adipoctye medium is incubated in the plate at room temperature for approximately 2 hours. After washing to remove unbound components, a second monoclonal antibody to human leptin (conjugated with biotin) is added. The plate is then incubated with strepavidin-conjugated horse radish peroxidase (HRP) and enzyme levels are determined by incubation with 3, 3′,5,5′-tetramethlybenzidine, which turns blue when cleaved by HRP. The OD450 is read for each well, where the dye absorbance is proportional to the leptin concentration in the cell lysate.
# Leptin is also a marker for differentiated adipocytes. In the adipocyte assay, leptin secretion into the media above the differentiated adipocytes was measured by protein ELISA. Cell growth, transfection and differentiation procedures were carried out as described for the Triglyceride accumulation assay (see below). On day nine post-transfection, 96-well plates were coated with a monoclonal antibody to human leptin (R&D Systems, Minneapolis, Minn.) and left at 4° C. overnight. The plates were blocked with bovine serum albumin (BSA), and a dilution of the media was incubated in the plate at RT for 2 hours. After washing to remove unbound components, a second monoclonal antibody to human leptin (conjugated with biotin) was added. The plate was then incubated with strepavidin-conjugated horseradish peroxidase (HRP) and enzyme levels are determined by incubation with 3, 3′, 5,5′-Tetramethlybenzidine, which turns blue when cleaved by HRP. The OD450 was read for each well, where the dye absorbance is proportional to the leptin concentration in the cell lysate. Results are expressed as a percent±standard deviation relative to transfectant-only controls.
# ob/ob mice = assay: ob/ob mice: plasma parameters, food consumption, marker gene mRNA; assay type: in vivo, mouse; details: six week old ob/ob mice, 25 mg/kg twice weekly for four weeks
# Description: Leptin is a hormone produced by fat cells that regulates appetite. Deficiencies in this hormone in both humans and non-human animals leads to obesity. ob/ob mice have a mutation in the leptin gene which results in obesity and hyperglycemia. As such, these mice are a useful model for the investigation of obesity and diabetes and treatments designed to treat these conditions. ob/ob mice have higher circulating levels of insulin and are less hyperglycemic than db/db mice, which harbor a mutation in the leptin receptor. In accordance with the present invention, the oligomeric compounds of the invention are tested in the ob/ob model of obesity and diabetes.
# Seven-week old male C57B1/6J-Lep ob/ob mice (Jackson Laboratory, Bar Harbor, Me.) are fed a diet with a fat content of 10-15% and are subcutaneously injected with the oligomeric compounds of the invention or a control compound at a dose of 25 mg/kg two times per week for 4 weeks. Saline-injected animals, leptin wildtype littermates (i.e. lean littermates) and ob/ob mice fed a standard rodent diet serve as controls. After the treatment period, mice are sacrificed and target levels are evaluated in liver, brown adipose tissue (BAT) and white adipose tissue (WAT). RNA isolation and target RNA expression level quantitation are performed as described by other examples herein.
# To assess the physiological effects resulting from modulation of target, the ob/ob mice are evaluated at the end of the treatment period for serum lipids, serum free fatty acids, serum cholesterol (CHOL), liver triglycerides, fat tissue triglycerides and liver enzyme levels. Hepatic steatosis, or clearing of lipids from the liver, is assessed by measuring the liver triglyceride content. Hepatic steatosis is assessed by routine histological analysis of frozen liver tissue sections stained with oil red O stain, which is commonly used to visualize lipid deposits, and counterstained with hematoxylin and eosin, to visualize nuclei and cytoplasm, respectively.
# The effects of target modulation on glucose and insulin metabolism are evaluated in the ob/ob mice treated with the oligomeric compounds of the invention. Plasma glucose is measured at the start of the treatment and after 2 weeks and 4 weeks of treatment. Plasma insulin is similarly measured at the beginning of the treatment, and following at 2 weeks and at 4 weeks of treatment. Glucose and insulin tolerance tests are also administered in fed and fasted mice. Mice receive intraperitoneal injections of either glucose or insulin, and the blood glucose and insulin levels are measured before the insulin or glucose challenge and at 15, 20 or 30 minute intervals for up to 3 hours.
# The ob/ob mice that receive treatment are evaluated at the end of the treatment period for the effects of target modulation on the expression of genes that participate in lipid metabolism, cholesterol biosynthesis, fatty acid oxidation, fatty acid storage, gluconeogenesis and glucose metabolism. These genes include, but are not limited to, HMG-CoA reductase, acetyl-CoA carboxylase 1 and acetyl-CoA carboxylase 2, camitine palmitoyltransferase I and glycogen phosphorylase, glucose-6-phosphatase and phosphoenolpyruvate carboxykinase 1, lipoprotein lipase and hormone sensitive lipase. mRNA levels in liver and white and brown adipose tissue are quantitated by real-time PCR as described in other examples herein, employing primer/probe sets that are generated using published sequences of each gene of interest.
# As described herein, leptin-deficient (ob/ob) mice, leptin receptor-deficient (db/db) mice and diet-induced obesity (DIO) mice are used to model obesity and diabetes. In accordance with the present invention, oligomeric compounds targeting mir-143, mir-131 (also known as mir-9) and mir-203 were tested in the ob/ob and db/db models. […]
substance,measurement,setting,value
TAGCTGGTTGAAGGGGACCAA (anti-miR; chemistry not fully specified) [ISIS 327925],"expression of the IGFBP-1, PEPCK-c and follistatin marker genes",HepG2 cells,"increased expression of the IGFBP-1, PEPCK-c and follistatin marker genes"
same,tube formation,HuVECs,suppressed tube formation
"328075 (antisense GCTTCACAGCTTCCAGTCGA; all 2'-MOE, all phosphorothioate, methylation of C not given here) [compound 328075]",percent control luciferase expression,mir-30a pri-miRNA,55 percent control
"328077 (antisense CCCATCTGTGGCTTCACAGC; all 2'-MOE, all phosphorothioate, methylation of C not given here) [compound 328077]",percent control luciferase expression,mir-30a pri-miRNA,70 percent control
"ISIS 328086: 5-10-5 2′-MOE gapmer, pseudo half-knot compound targeting the mir-30a pri-miRNA (antisense e[5mC]*eA*eT*e[5mC]*eT*dG*dT*dG*dG*d[5mC]*dT*dT*d[5mC]*dA*d[5mC]*eA*eG*e[5mC]*eT*eT; pseudo half-knot compound)",reversing the mir-30a miRNA-mediated silencing of luciferase reporter,mir-30a pri-miRNA,restoring luciferase reporter expression to near control levels
"ISIS 328087: 2′-MOE throughout; pseudo half-knot compound targeting the mir-30a pri-miRNA (antisense AAGCCCATCTGTGGCTTCAC; all 2'-MOE, all phosphorothioate, methylation of C not given here; pseudo half-knot design targeting pri-miRNA hairpin)",reversing the mir-30a miRNA-mediated silencing of luciferase reporter,mir-30a pri-miRNA,restoring luciferase reporter expression to near control levels
ISIS 328765: oligomeric compound targeting mir-215 (antisense eG*eA*e[5mC]*eA*eA*dA*d[5mC]*dT*d[5mC]*dA*dG*d[5mC]*dT*dA*dT*eA*eT*eT*eG*eT),mRNA levels of the IGFBP-1 and follistatin genes,HepG2 cells,also reduced
same,reduction of PEPCK-c mRNA expression,PEPCK-c,27%
"328085 (antisense CATCTGTGGCTTCACAGCTT; all 2'-MOE, all phosphorothioate, methylation of C not given here; designed as pseudo half-knot compound) [compound 328085]",percent control luciferase expression,mir-30a pri-miRNA,72 percent control
TCACAAGTTAGGGTCTCAGGGA [ISIS 327939],expression of the four adipocyte differentiation hallmark genes,"[1]; preadipocytes, 250 nM, day nine",decrease in the expression of all four adipocyte differentiation hallmark genes
same,triglyceride accumulation,adipocytes,decrease in triglyeride accumulation
same,Leptin (secretion),leptin,significant increase in leptin secretion
same,"expression of the IGFBP-1, PEPCK-c and follistatin marker genes",HepG2 cells,"increased expression of the IGFBP-1, PEPCK-c and follistatin marker genes"
"GAAACCCAGCAGACAATGTAGCT (anti-miR; chemistry not fully specified) [ISIS 345384, PS 2′-MOE 5-10-8 gapmer; targets mir-221]",plasma glucose levels in the fed state,ob/ob mice,reductions in plasma glucose levels in the fed state at weeks two and four
ISIS 328761: oligomeric compound targeting hypothetical mir-138 (antisense eG*e[5mC]*eA*eG*eG*d[5mC]*dT*dA*dA*dA*dA*dG*dA*dA*dA*eT*eA*eA*eG*e[5mC]),mRNA levels of the IGFBP-1 and follistatin genes,HepG2 cells,also reduced
same,reduction of PEPCK-c mRNA expression,PEPCK-c,45%
same,decrease in PEPCK-c mRNA,"PEPCK-c; HepG2, basal (no insulin)",52%
CAGCCGCTGTCACACGCACAG (anti-miR; chemistry not fully specified) [ISIS 327959],IGFBP-1 and PEPCK-c marker genes,"HepG2 cells; HepG2, basal (no insulin)",increases in the IGFBP-1 and PEPCK-c marker genes
same,tube formation,HuVECs,suppressed tube formation
"ACAGGCCGGGACAAGTGCAATA (anti-miR; chemistry not fully specified) [ISIS 327897, uniform 2′-MOE PS; targets mir-92-1]",5 markers of adipocyte differentiation,"[1]; differentiating adipocytes, % of UTC (Table 75)",significant reduction in expression of 4 of the 5 markers of differentiation
same,expression of the IGFBP-1 and follistatin marker genes,"HepG2 cells; HepG2, basal (no insulin)",increased expression of the IGFBP-1 and follistatin marker genes
